Reference: patent US3974140A, “Ureidoacetamido-penicillins” (Bayer Aktiengesellschaft, priority 1970, dated 1976)
Values joined by “and” are separate entries in the source; they are usually repeats but may differ in a detail not shown here. Identical values can stand only once.

Tests used:
Experiment in all cases: MIC, liquid medium test tube series dilution test
E. coli 14 = assay type: cell-based; details: E. coli 14, 24 hours, 37°C
Description: (§1) The chemotherapeutic activity of the new penicillins was tested in vivo and in vitro. The in vitro inhibition values (MIC = minimum inhibition concentration (see Tables 1 and 2) were determined in a liquid medium in the test tube series dilution test, with readings being taken after 24 hours' incubation at 37°C. The MIC is indicated by the non-turbid test tube in the dilution series. A complete medium of the following composition was used as the nutrient medium:
(§2) The figures quoted in the Examples for the effectiveness against certain bacteria (units/ml) are minimum inhibitory concentrations in the test tube series dilution test after 24 hours' incubation.

E. coli 183/58 = assay type: cell-based; details: E. coli 183/58, 24 hours, 37°C
Description: as §1, §2

E. coli A 261 = assay type: cell-based; details: E. coli A 261, 24 hours, 37°C
Description: as §1, §2

E. coli C 165 = assay type: cell-based; details: E. coli C 165, 24 hours, 37°C
Description: as §1, §2

Klebsiella 63 = assay type: cell-based; details: Klebsiella 63, 24 hours, 37°C
Description: as §1, §2

Klebsiella K 10 = assay type: cell-based; details: Klebsiella K 10, 24 hours, 37°C
Description: as §1, §2

[1] = system: Streptoc. faec. ATCC 9790; assay type: cell-based; details: Strep. faec. (Enterococcus) ATCC 9790, 24 hours, 37°C
Description: as §1, §2

Proteus vulg. 1017 = assay type: cell-based, Proteus vulgaris; details: Proteus vulg. 1017, 24 hours, 37°C
Description: as §1, §2

Proteus vulg. 3400 = assay type: cell-based, Proteus vulgaris; details: Proteus vulg. 3400, 24 hours, 37°C
Description: as §1, §2

Psdm. aerug. Bonn = assay type: cell-based, Pseudomonas aerug.; details: 24 hours, 37°C
Description: as §1, §2

Psdm. aerug. Walter = assay type: cell-based, Pseudomonas aerug.; details: 24 hours, 37°C
Description: as §1, §2

Staph. aureus 133 = assay type: cell-based, Staphylococcus aureus; details: Staph. aureus 133, 24 hours, 37°C
Description: as §1, §2

SMILES | MIC (E. coli 14) | MIC (E. coli 183/58) | MIC (E. coli A 261) | MIC (E. coli C 165) | MIC (Klebsiella 63) | MIC (Klebsiella K 10) | MIC [1] | MIC (Proteus vulg. 1017) | MIC (Proteus vulg. 3400) | MIC (Psdm. aerug. Bonn) | MIC (Psdm. aerug. Walter) | MIC (Staph. aureus 133) | other results
CN(C(=O)N[C@@H](C(=O)N[C@@H]1C(=O)N2[C@@H]1SC(C)(C)[C@@H]2C(=O)O)c1ccccc1)C(=O)c1ccccc1[N+](=O)[O-] [Example 140, Sodium D(-)-α-(3-o-nitrobenzoyl-3-methyl-ureido)-benzylpenicillin] | 0.8 units/ml | 1.6 units/ml | 50 units/ml | 3.1 units/ml | 25 units/ml | 12.5 units/ml | 12.5 units/ml | 3.1 units/ml | 6.25 units/ml | 12.5 units/ml | 12.5 units/ml | < 0.8 units/ml | 
C=CCN(C(C)=O)C(=O)N[C@@H](C(=O)N[C@@H]1C(=O)N2[C@@H]1SC(C)(C)[C@@H]2C(=O)O)c1ccccc1 [Example 1, Sodium D(-)-α-(3-acetyl-3-allylureido)-benzylpenicillin] | 25 units/ml | 100 units/ml | > 400 units/ml | 100 units/ml | 50 units/ml | 50 units/ml | 200 units/ml | 400 units/ml | 200 units/ml | 400 units/ml | 200 units/ml | 1.6 units/ml | 
CN(C(=O)N[C@@H](C(=O)N[C@@H]1C(=O)N2[C@@H]1SC(C)(C)[C@@H]2C(=O)O)c1ccccc1)C(=O)c1cccs1 [Example 37, Sodium D(-)-α-[3-(2-thenoyl)-3-methyl-ureido]-benzylpenicillin] | < 0.8 units/ml | 0.8-4 units/ml | > 500 units/ml | 0.8-4 units/ml | 4-20 units/ml | 20-100 units/ml | 20-100 units/ml | 4-20 units/ml | 4-20 units/ml | 4-20 units/ml | 4-20 units/ml | < 0.8 units/ml | 
CN(C(=O)N[C@@H](C(=O)N[C@@H]1C(=O)N2[C@@H]1SC(C)(C)[C@@H]2C(=O)O)c1ccccc1)C(=O)c1c(Cl)cccc1Cl [Example 141, Sodium D(-)-α-(3, o,o'-dichlorobenzoyl-3-methyl-ureido)-benzyl-penicillin] | 0.8 units/ml | 1.6 units/ml | 50 units/ml | 3.1 units/ml | 12.5 units/ml | 6.25 units/ml |  | 3.1 units/ml | 3.1 units/ml | 12.5 units/ml | 6.25 units/ml |  | 
CN(C(=O)CCC(Cl)(Cl)Cl)C(=O)N[C@@H](C(=O)N[C@@H]1C(=O)N2[C@@H]1SC(C)(C)[C@@H]2C(=O)O)c1ccccc1 [Example 89, Sodium (-)-α-(3-γ-trichlorobutyryl-3-methyl-ureido)-benzylpenicillin] | 1.56 units/ml | 1.56 units/ml | 400 units/ml | 6.25 units/ml | 12.5 units/ml | 25 units/ml | 100 units/ml | 3.12 units/ml | 12.5 units/ml | 25 units/ml | 50 units/ml | < 0.78 units/ml | 
COC(=O)N(C)C(=O)N[C@@H](C(=O)N[C@@H]1C(=O)N2[C@@H]1SC(C)(C)[C@@H]2C(=O)O)c1ccccc1 [Example 96, Sodium D(-)-α-(3-methoxycarbonyl-3-methyl-ureido)-benzylpenicillin] | 6.25 units/ml | 25 units/ml |  | 12.5 units/ml | 200 units/ml | 200 units/ml | 25 units/ml | 50 units/ml | 50 units/ml | 25 units/ml | 25 units/ml | 1.56 units/ml | MIC (E. coli 14; listed as (B) of Example 10): 6.25 units/ml; MIC (E. coli 183/58; listed as (B) of Example 10): 25 units/ml; MIC (Klebsiella 63; listed as (B) of Example 10): 200 units/ml; MIC (Klebsiella K 10; listed as (B) of Example 10): 200 units/ml; MIC (Psdm. aerug. Bonn; listed as (B) of Example 10): 25 units/ml; MIC (Psdm. aerug. Walter; listed as (B) of Example 10): 25 units/ml; MIC (Staph. aureus 133; listed as (B) of Example 10): 1.56 units/ml
CN(C(=O)CCC(F)(F)F)C(=O)N[C@@H](C(=O)N[C@@H]1C(=O)N2[C@@H]1SC(C)(C)[C@@H]2C(=O)O)c1ccccc1 [Example 69, Sodium D(-)-α-(3-γ-trifluorobutyryl-3-methyl-ureido)-benzylpenicillin] | 1.56 units/ml | 3.12 units/ml | 400 units/ml | 6.25 units/ml | 12.5 units/ml and 25 units/ml | 50 units/ml | 100 units/ml | 12.5 units/ml | 25 units/ml | 12.5 units/ml | 100 units/ml | < 0.78 units/ml | 
Cc1ccc(C(NC(=O)N(C)C(=O)c2ccccc2F)C(=O)N[C@@H]2C(=O)N3[C@@H]2SC(C)(C)[C@@H]3C(=O)O)cc1 (stereo partly drawn) [Example 44, Sodium α-(3-o-fluorobenzoyl-3-methyl-ureido)-α-p-tolyl-methylpenicillin] | 6.25 units/ml | 25 units/ml | 400 units/ml | 25 units/ml | 50 units/ml | 50 units/ml | 100 units/ml | 50 units/ml | 25 units/ml | 50 units/ml | 50 units/ml | 1.6 units/ml | 
CC1(C)S[C@@H]2[C@H](NC(=O)C(NC(=O)N3CCNC3=O)c3ccc(Cl)cc3)C(=O)N2[C@H]1C(=O)O (stereo partly drawn) [Example 48 A, Sodium α-[(imidazolidin-2-on-1-yl)-carbonylamino]-p-chlorobenzylpenicillin] |  |  |  |  | 50 units/ml | 100 units/ml |  |  |  |  |  |  | MIC (E. coli C 165; listed as 48 A): 12,5 units/ml; MIC ([1]; listed as 48 A): 25 units/ml; MIC (Proteus vulg. 1017; listed as 48 A): 25 units/ml; MIC (Proteus vulg. 3400; listed as 48 A): 50 units/ml; MIC (Psdm. aerug. Bonn; listed as 48 A): 25 units/ml
Cc1ccc(C(NC(=O)N(C)C(=O)c2ccccc2)C(=O)N[C@@H]2C(=O)N3[C@@H]2SC(C)(C)[C@@H]3C(=O)O)cc1 (stereo partly drawn) [Example 4, Sodium D,L-α-(3-benzoyl-3-methyl-ureido)-p-methylbenzyl-penicillin] | 0.8-4 units/ml | 4-20 units/ml | 100-500 units/ml | 4-20 units/ml | 20-100 units/ml | 20-100 units/ml | 100-500 units/ml | 4-20 units/ml | 4-20 units/ml | 20-100 units/ml | 20-100 units/ml |  | 
CC(C)OC(=O)N(C)C(=O)N[C@@H](C(=O)N[C@@H]1C(=O)N2[C@@H]1SC(C)(C)[C@@H]2C(=O)O)c1ccccc1 [Example 97, Sodium D(-)-α-(3-i-propoxycarbonyl-3-methyl-ureido)-benzylpenicillin] | 6.25 units/ml | 6.25 units/ml |  | 25 units/ml | 50 units/ml | 400 units/ml |  | 25 units/ml | 25 units/ml | 25 units/ml | 50 units/ml |  | MIC (E. coli 14; listed as (B) of Example 11): 6.25 units/ml; MIC (E. coli 183/58; listed as (B) of Example 11): 6.25 units/ml; MIC (E. coli C 165; listed as (B) of Example 11): 25 units/ml; MIC (Psdm. aerug. Bonn; listed as (B) of Example 11): 25 units/ml; MIC (Psdm. aerug. Walter; listed as (B) of Example 11): 50 units/ml
